{
  "source": "patent US20080131310A1",
  "about": "“Methods for determining effectiveness of waste water tank deodorizers and synthetic waste compositions for use in said methods” (Fuller Brush Company, Inc., priority 2006, published 2008)",
  "test_system": "Escherichia coli strain K12 (ATCC 25253)",
  "experiment": "Inhibitive evaluation: hydrogen sulfide generation in synthetic waste water media inoculated with E. coli",
  "assay_type": "cell-based",
  "conditions": "for H2S in ppm vs. contact times, 24 Hours: 24 hours contact time; for H2S in ppm vs. contact times, 48 Hours: 48 hours contact time; for H2S in ppm vs. contact times, 72 Hours: 72 hours contact time",
  "experimental": "An experiment was conducted to evaluate the effectiveness of recreational vehicle (Black) waste water tank deodorizer in preventing […] degradation processes that result in unpleasant odors. The effectiveness of the tank deodorizer was evaluated through the inhibition of growth using an E. Coli within a synthetic waste water media. This comparison of the respective products inhibition was over selected time periods from 5 to 7 days.\n500 grams total of synthetic soil media was prepared having the following ingredients:\nRV biodegradable toilet paper (small pieces) . . . 5.0 g • With the exception of the oatmeal and toilet paper, the above ingredients were mixed together and heated to 55° C. with constant mixing for 15 to 20 minutes. The oatmeal and toilet paper were then added and thoroughly mixed in. Mixture is allowed to cool to room temperature, then transferred to the waste water tank/digester test vessel.\nEscherichia coli strain K12 (ATCC 25253) was employed.\n1. To build up the count of microbes, using a 48-hour Nutrient Broth culture incubated at 37° C. of the E. Coli or other selected organism, the culture must be on at least the fourth consecutive 24-hour transfer before using. Have one tube of the 48-hour culture available for each of the test vessels.\n2. Before inoculating the surrogate black waste water tank test vessel containing the synthetic soil media, the number of organisms being utilized was verified to achieve a range no less than a count of log^8 per milliliter. Serial dilutions of the E. coli culture were prepared as follows:\na.) Tube • #1. 1.0 ml organism culture+9.0 ml Nutrient Broth=1/10 • #2. 1.0 ml tube #1 dilution+9.0 ml Nutrient Broth=1/10^−2 • #3. 1.0 ml tube #2 dilution+9.0 ml Nutrient Broth=1/10^−3 • #4. 1.0 ml tube #3 dilution+9.0 ml Nutrient Broth=1/10^−4 • #5. 1.0 ml tube #4 dilution+9.0 ml Nutrient Broth=1/10^−5 • #6. 1.0 ml tube #5 dilution+9.0 ml Nutrient Broth=1/10^−6 • #7. 1.0 ml tube #6 dilution+9.0 ml Nutrient Broth=1/10^−7 • #8. 1.0 ml tube #7 dilution+9.0 ml Nutrient Broth=1/10^−8 • *Note: each dilution was thoroughly mixed before transferring to the next tube. b.) Each dilution was plated by the pour plate method. 1.0 ml of dilution was plated with 10.0 ml TGY pour plate agar. Plates were incubated at 37° C. for 48 hrs before reading for enumeration.\n3. Specified amounts of test subject deodorizer from the chart below were added to the test vessel containing the 500 grams of the synthetic soil media and mix thoroughly to assure uniform distribution.\n4. 5.0 ml of the E. coli culture from step #1 were added to the test vessel and thoroughly mixed to assure uniform distribution. This brought the organism count to a range to greater than 1.0×10^4 cfu/ml in the 500 g of synthetic soil media.\n5. Caps were placed on the test vessels and the vessels were stored at a temperature of 80° F. during the 5 day or more evaluation period. Note: Tests may be performed at various temperatures at the discretion of the investigator. For example, 100° F. incubation may be used to reflect very high summer temperature test environments.\n6. At 24 hrs contact time, handling was in such a manner as to minimize movement of the container and sewage inside. The cap was quickly removed from the test vessel and the holding cradle containing the H2S monitor was placed over the mouth of the test vessel for 4 minutes. During the 4 minute testing period the container was maintained as still as possible. • *Note: monitor must be zeroed before each reading taken.\n7. After 4 minute of testing was completed, the monitor and cradle were removed from the mouth of the vessel and the cap replaced. Peak gas readings in ppm of H2S were recorded. Steps 6 & 7 were repeated for each test vessel in set.\n8. Steps (6-7) were repeated for each of the remaining contact times of 48 hrs, 72 hrs, 96 hrs, 120 hrs. It should be noted that other times could be adopted for standardization of the protocol and that these times are simply preferred. […]",
  "key": {"[1]": {"conditions": "0.78 ml/500 g synthetic soil media (8 oz per 40 gal tank), 80° F., peak head space reading, >5 ppm unacceptable"}},
  "note": "Marks after values point to notes of the source that are not given here.",
  "data": [
    {"molecule": "C1N2CN3CN1CN(C2)C3", "note": "[Hexamethylene-Tetramine]", "values": [
      {"measurement": "H2S in ppm vs. contact times, 24 Hours", "setting": "[1]", "result": 2, "unit": "ppm"},
      {"measurement": "H2S in ppm vs. contact times, 48 Hours", "setting": "[1]", "result": 2, "unit": "ppm"},
      {"measurement": "H2S in ppm vs. contact times, 72 Hours", "setting": "[1]", "result": "48* ppm"}
    ]},
    {"molecule": "O=[N+]([O-])C(Br)(CO)CO", "note": "[Bronopol, 2-bromo-2-nitropropane-1,3-diol]", "values": [
      {"measurement": "H2S in ppm vs. contact times, 24 Hours", "setting": "[1]", "result": 0, "unit": "ppm"},
      {"measurement": "H2S in ppm vs. contact times, 48 Hours", "setting": "[1]", "result": 0, "unit": "ppm"},
      {"measurement": "H2S in ppm vs. contact times, 72 Hours", "setting": "[1]", "result": 0, "unit": "ppm"},
      {"measurement": "H2S in ppm vs. contact times, 96 Hours", "setting": "96 hours contact time, 0.78 ml/500 g synthetic soil media (8 oz per 40 gal tank), 80° F., peak head space reading, >5 ppm unacceptable", "result": 0, "unit": "ppm"},
      {"measurement": "H2S in ppm vs. contact times, 120 Hours", "setting": "120 hours contact time, 0.78 ml/500 g synthetic soil media (8 oz per 40 gal tank), 80° F., peak head space reading, >5 ppm unacceptable", "result": 0, "unit": "ppm"},
      {"measurement": "Performance in H2S inhibition compared with the Aqua Kem control", "setting": "over 120 hours, 0.78 ml/500 g synthetic soil media", "result": "The * indicates when each active had reached the unacceptable level of odor value. The two best performing actives that were equal to or near the performance of the Aqua Kem control were the Bronopol and Neolone M-10."}
    ]}
  ]
}
